Target: human NOP receptor (Homo sapiens, UniProt P41146)
Assay: Calcium mobilization assay in CHO cells stably coexpressing the NOP receptor and the Gαqi5 chimeric G protein
Settings: CHOhNOP + Gαqi5 cells; Fluo-4 AM, FlexStation II, 37 °C; four-parameter logistic fit; mean of 5 or at least 6 experiments in duplicate
Protocol: Drugs and reagents: The reagents used were purchased from Sigma-Aldrich (St. Louis, MO, USA) and Thermo Fisher Scientific (Waltham, MA, USA). […] Concentrated solutions of ligands were made in distilled water (1 mM) and kept at −20 °C until use. Successive dilutions of ligands were made in Hank’s Balanced Salt Solution (HBSS) and HEPES buffer (containing 0.005% Bovine Serum Albumine (BSA)).
Cell Culture: Chinese Hamster Ovary (CHO) cells stably coexpressing the NOP opioid receptors and the Gαqi5 protein were used. […]
Calcium Mobilization Assay: Calcium mobilization studies were performed using the automated fluorometer microplate reader FlexStation II (Molecular Devices, Sunnyvale, CA, USA), which was employed to detect changes in fluorescence intensity. […] After placing both plates (cell culture and compound plate) into the fluorometric imaging plate reader FlexStation II, fluorescence changes were measured. […] Maximum change in fluorescence, expressed as percent over the baseline fluorescence, was used to determine agonist response.
Data analysis and terminology: All data were analyzed using Graph Pad Prism 6.0 (La Jolla, CA, USA). […] Data were expressed as mean ± sem of 5 experiments performed in duplicate. Agonist effects were expressed as the maximum change in percent over the baseline fluorescence. Baseline fluorescence was measured in wells treated with vehicles. […]

Chain of human NOP receptor (P41146 whole entry): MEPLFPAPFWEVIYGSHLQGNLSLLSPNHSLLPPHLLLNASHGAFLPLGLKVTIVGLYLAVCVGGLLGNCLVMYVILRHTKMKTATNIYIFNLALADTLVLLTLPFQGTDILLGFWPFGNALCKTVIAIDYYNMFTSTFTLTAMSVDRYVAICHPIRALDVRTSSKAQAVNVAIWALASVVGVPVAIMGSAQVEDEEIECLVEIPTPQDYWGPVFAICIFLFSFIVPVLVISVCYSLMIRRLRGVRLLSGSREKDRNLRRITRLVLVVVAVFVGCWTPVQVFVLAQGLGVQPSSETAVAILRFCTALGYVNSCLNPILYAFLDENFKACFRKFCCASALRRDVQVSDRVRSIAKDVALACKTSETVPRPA

[Dmt^1]N/OFQ(1-13)-NH2
pEC50 (CL95%): 8.35 (7.94–8.77)

Reference: publication PMC10675785, “(L)-Monomethyl Tyrosine (Mmt): New Synthetic Strategy via Bulky ‘Forced-Traceless’ Regioselective Pd-Catalyzed C(sp^2)–H Activation” (Pharmaceuticals, 2023)
